Assay results reported in article PMC12717519, “Chemical clues to infection: A pilot study on the differential secondary metabolite production during the life cycle of selected Cordyceps species” (IMA Fungus, 2025).
pIC50: −log10 of the molar value. Converted amounts (≈) assume the structure as drawn. Read-outs that look alike come from different tables or passages of the source.

Experiments:
[1] = test system: Bacillus subtilis (DSM 10); test: microbe, parasite or virus in culture; type: cell-based; conditions: serial dilution in 96-well microtiter plates, tested up to 67 µg/mL
Method: (§1) Serial dilution assays were performed in 96-well microtiter plates to determine the minimum inhibitory concentrations (MICs) against a panel of yeasts, filamentous fungi, and bacteria, as well as the half-maximal inhibitory concentrations (IC50) against human cell lines, following our previously described protocol ([Charria-Girón et al. 2023]).

[2] = test system: Staphylococcus aureus (DSM 346); test: microbe, parasite or virus in culture; type: cell-based
Method: as §1

[3] = test system: Candida albicans (DSM 1665); test: MIC serial dilution assay; type: cell-based; conditions: serial dilution in 96-well microtiter plates, tested up to 67 µg/mL
Method: as §1

[4] = test system: Escherichia coli (DSM 1116); test: MIC serial dilution assay; type: cell-based; conditions: serial dilution in 96-well microtiter plates, tested up to 67 µg/mL
Method: as §1

[5] = test system: Pseudomonas aeruginosa (PA14); test: MIC serial dilution assay; type: cell-based; conditions: serial dilution in 96-well microtiter plates, tested up to 67 µg/mL
Method: as §1

[6] = test system: Mycobacterium smegmatis (ATCC 700084); test: MIC serial dilution assay; type: cell-based; conditions: serial dilution in 96-well microtiter plates, tested up to 67 µg/mL
Method: as §1

[7] = test system: beet armyworm (Spodoptera exigua, Lepidoptera); test: Virulence of purified compounds against beet armyworm larvae (injection); type: in vivo; conditions: larvae injected with 0.5 µL of DMSO dilutions (40 to 0.625 µg/mL), n = 6 per concentration, 25 °C
Method: To evaluate the virulence of purified compounds against beet armyworm larvae, beauveriolides I (4) and M (5) were selected based on availability, and cytochalasin D served as a positive control. […] Larvae were injected with 0.5 µL of each dilution (n = 6 per concentration), maintained at 25 °C for one week, and monitored daily to assess mortality. Saline ([…]) and DMSO served as negative controls.
For proof of concept, beauveriolides I (4) and M (5) were selected based on availability and tested following the spore-suspension protocol but considering only total mortality, with cytochalasin D, a mycotoxin commonly produced by Metarhizium spp., used as a positive control ([Kobmoo et al. 2024]).

Mouse fibroblast (L929) = test: Cytotoxicity assay; type: cell-based; conditions: serial dilution in 96-well plates
[8] = test system: Human endocervival adenocarcinoma (KB3.1); test: cells; type: cell-based
Method: as §1

[9] = test system: Acinetobacter baumannii (DSM 30008); test: MIC serial dilution assay; type: cell-based; conditions: serial dilution in 96-well microtiter plates, tested up to 67 µg/mL
Method: as §1

[10] = test system: Schizosaccharomyces pombe (DSM 70572); test: MIC serial dilution assay; type: cell-based; conditions: serial dilution in 96-well microtiter plates, tested up to 67 µg/mL
Method: as §1

[11] = test system: Wickerhamomyces anomalus (DSM 6766); test: MIC serial dilution assay; type: cell-based; conditions: serial dilution in 96-well microtiter plates, tested up to 67 µg/mL
Method: as §1

[12] = test system: Mucor hiemalis (DSM 2656); test: MIC serial dilution assay; type: cell-based; conditions: serial dilution in 96-well microtiter plates, tested up to 67 µg/mL
Method: as §1

[13] = test system: Chromobacterium violaceum (DSM 30191); test: MIC serial dilution assay; type: cell-based; conditions: serial dilution in 96-well microtiter plates, tested up to 67 µg/mL
Method: as §1

[14] = test system: Rhodotorula glutinis (DSM 10134); test: MIC serial dilution assay; type: cell-based; conditions: serial dilution in 96-well microtiter plates, tested up to 67 µg/mL
Method: as §1

[15] = Solubility in deuterated solvents (for NMR); type: physicochemical; conditions: observation during NMR sample preparation; deuterated solvents / deuterated DMSO
[16] = serial dilution in 96-well microtiter plates, tested up to 67 µg/mL
[17] = KB3.1, serial dilution in 96-well plates, read-out: IC50
[18] = Bacillus subtilis, DSM10, read-out: MIC
[19] = Staphylococcus aureus, DSM346, serial dilution in 96-well microtiter plates, tested up to 67 µg/mL, read-out: MIC
[20] = Candida albicans, DSM1665, read-out: MIC
[21] = Escherichia coli, DSM1116, read-out: MIC
[22] = Pseudomonas aeruginosa, PA14, read-out: MIC
[23] = Mycolicibacterium smegmatis, ATCC700084, read-out: MIC
[24] = Mucor hiemalis, DSM2656, read-out: MIC
[25] = Chromobacterium violaceum, DSM30191, read-out: MIC
[26] = Homo sapiens, KB 3-1, KB3.1, serial dilution in 96-well plates, read-out: IC50

| Compound | MIC [1] | MIC [2, 16] | MIC [3] | MIC [4] | MIC [5] | MIC [6] | pIC50 (Mouse fibroblast (L929)) | pIC50 [8, 17] | MIC [12] | other results |
| --- | --- | --- | --- | --- | --- | --- | --- | --- | --- | --- |
| CCCC[C@H](C)[C@@H]1CC(=O)N[C@@H](C(C)C)C(=O)N[C@@H](C)C(=O)N[C@H](CC(C)C)C(=O)O1 [Compound 5, beauveriolide M] | n.i. (No inhibition up to 67 µg/mL) | n.i. (No inhibition up to 67 µg/mL) | n.i. (No inhibition up to 67 µg/mL) | n.i. (No inhibition up to 67 µg/mL) | n.i. (No inhibition up to 67 µg/mL) | n.i. (No inhibition up to 67 µg/mL) | < 4.44 | < 4.44 |  | insecticidal activity over 7 days ([7]; total mortality): no insecticidal |
| C=C1[C@@H](C)[C@H]2[C@H](Cc3ccccc3)NC(=O)[C@]23[C@H](OC(C)=O)/C=C/[C@@](C)(O)C(=O)[C@@H](C)C/C=C/[C@H]3[C@@H]1O [cytochalasin D, reference compound] |  |  |  |  |  |  |  |  |  | total mortality (TM) by day 2 ([7]; concentration of the value not stated): 83% |
| cyclo-((S)-Pro-(R)-Leu) [Compound 8] | n.i. (No inhibition up to 67 µg/mL) | n.i. (No inhibition up to 67 µg/mL) | n.i. (No inhibition up to 67 µg/mL) | n.i. (No inhibition up to 67 µg/mL) | n.i. (No inhibition up to 67 µg/mL) | n.i. (No inhibition up to 67 µg/mL) | < 4.44 | < 4.44 | n.i. (No inhibition up to 67 µg/mL) | MIC [9]: n.i. (No inhibition up to 67 µg/mL); MIC [10]: n.i. (No inhibition up to 67 µg/mL); MIC [11]: n.i. (No inhibition up to 67 µg/mL); MIC [13]: n.i. (No inhibition up to 67 µg/mL); MIC [14]: n.i. (No inhibition up to 67 µg/mL) |
| CCCC[C@H](C)[C@@H]1CC(=O)N[C@@H](C)C(=O)N[C@@H](C)C(=O)N[C@H](CC(C)C)C(=O)O1 [Compound 3, Beauveriolide S] | n.i. (No inhibition up to 67 µg/mL) |  | n.i. (No inhibition up to 67 µg/mL) | n.i. (No inhibition up to 67 µg/mL) | n.i. (No inhibition up to 67 µg/mL) | n.i. (No inhibition up to 67 µg/mL) | < 4.44 | < 4.44 | n.i. (No inhibition up to 67 µg/mL) | MIC ([2]; DSM 346): 66.6 µg/mL (≈ 162 µM); solubility in deuterated solvents [15]: insoluble |
| NC[C@H]1O[C@H](O[C@H]2[C@H](O)[C@@H](O[C@H]3O[C@H](CO)[C@@H](O)[C@H](N)[C@H]3O)[C@H](N)C[C@@H]2N)[C@H](O)[C@@H](O)[C@@H]1O [kanamycin, reference compound] |  |  |  |  |  | 1.70^K µg/mL |  |  |  |  |
| CCCC[C@H](C)[C@@H]1CC(=O)N[C@@H](Cc2c[nH]c3ccccc23)C(=O)N[C@@H](Cc2ccccc2)C(=O)N[C@H](CC(C)C)C(=O)O1 [Compound 7, beauveriolide Jb] | n.i. (No inhibition up to 67 µg/mL) | n.i. (No inhibition up to 67 µg/mL) | n.i. (No inhibition up to 67 µg/mL) | n.i. (No inhibition up to 67 µg/mL) | n.i. (No inhibition up to 67 µg/mL) | n.i. (No inhibition up to 67 µg/mL) | < 4.44 |  | n.i. (No inhibition up to 67 µg/mL) | MIC [9]: n.i. (No inhibition up to 67 µg/mL); MIC [10]: n.i. (No inhibition up to 67 µg/mL); MIC [11]: n.i. (No inhibition up to 67 µg/mL); MIC [13]: n.i. (No inhibition up to 67 µg/mL); MIC [14]: n.i. (No inhibition up to 67 µg/mL); pIC50 [8]: 4.44 |
| CN(C)[C@@H]1C(O)=C(C(N)=O)C(=O)[C@@]2(O)C(O)=C3C(=O)c4c(O)cccc4[C@@](C)(O)[C@H]3[C@H](O)[C@@H]12 [oxytetracycline, reference compound] |  |  |  |  |  |  |  |  |  | MIC [1, 18]: 16.6 µg/mL (≈ 36.1 µM) |
| CC(=O)c1nc(C(=O)O)cc2c1[nH]c1ccccc12 [Compound 12, 1-acetyl-3-carboxy-β-carboline] |  |  |  |  |  |  |  |  |  | MIC [1, 18]: > 67 µg/mL; MIC [2, 19]: > 67 µg/mL; MIC [3, 20]: > 67 µg/mL; MIC [4, 21]: > 67 µg/mL; MIC ([9]; Acinetobacter baumannii, DSM30008, read-out: MIC): > 67 µg/mL; MIC ([10]; Schizosaccharomyces pombe, DSM70572, read-out: MIC): > 67 µg/mL; MIC ([11]; Hansenula anomala, DSM6766, read-out: MIC): > 67 µg/mL; MIC [5, 22]: > 67 µg/mL; MIC [6, 23]: > 67 µg/mL; MIC [12, 24]: > 67 µg/mL; MIC [13, 25]: > 67 µg/mL; MIC ([14]; Rhodotorula glutinis, DSM10134, read-out: MIC): > 67 µg/mL; pIC50 (Mouse fibroblast (L929); Mus musculus): < 4.44; pIC50 [8, 26]: < 4.44 |
| cyclo-((S)-Val-(R)-Val) [Compound 10] | n.i. (No inhibition up to 67 µg/mL) | n.i. (No inhibition up to 67 µg/mL) | n.i. (No inhibition up to 67 µg/mL) | n.i. (No inhibition up to 67 µg/mL) | n.i. (No inhibition up to 67 µg/mL) | n.i. (No inhibition up to 67 µg/mL) | < 4.44 | < 4.44 | n.i. (No inhibition up to 67 µg/mL) |  |
| CC(=O)c1nccc2c1[nH]c1ccccc12 [Compound 11, 1-acetyl-β-carboline] |  |  |  |  |  |  |  |  |  | MIC [1, 18]: > 67 µg/mL; MIC [2, 19]: > 67 µg/mL; MIC [3, 20]: > 67 µg/mL; MIC [4, 21]: > 67 µg/mL; MIC [5, 22]: > 67 µg/mL; MIC [6, 23]: > 67 µg/mL; MIC [12, 24]: > 67 µg/mL; pIC50 (Mouse fibroblast (L929); Mus musculus): < 4.44; pIC50 [8, 26]: < 4.44 |
| cyclo-((S)-Pro-(R)-Ile) [Compound 9] | n.i. (No inhibition up to 67 µg/mL) | n.i. (No inhibition up to 67 µg/mL) | n.i. (No inhibition up to 67 µg/mL) | n.i. (No inhibition up to 67 µg/mL) | n.i. (No inhibition up to 67 µg/mL) | n.i. (No inhibition up to 67 µg/mL) | < 4.44 | < 4.44 | n.i. (No inhibition up to 67 µg/mL) | MIC [9]: n.i. (No inhibition up to 67 µg/mL); MIC [10]: n.i. (No inhibition up to 67 µg/mL); MIC [11]: n.i. (No inhibition up to 67 µg/mL); MIC [13]: n.i. (No inhibition up to 67 µg/mL); MIC [14]: n.i. (No inhibition up to 67 µg/mL) |
| C[C@@H]1[C@H](O)[C@@H](C)/C=C/C=C/CC/C=C/C=C/C=C/C=C/C(O[C@H]2O[C@H](C)[C@@H](O)[C@H](N)[C@@H]2O)CC2O[C@](O)(CC(O)C(O)CCC(O)CC(O)CC(O)CC(=O)O[C@H]1C)CC(O)C2C(=O)O (stereo partly drawn) [nystatin, reference compound] |  |  | 8.3^N µg/mL |  |  |  |  |  | 8.30^N µg/mL | MIC [10]: 8.30^N µg/mL; MIC [11]: 16.6^N µg/mL; MIC [14]: 4.20^N µg/mL |
| beauveriolide L [Compound 6] | n.i. (No inhibition up to 67 µg/mL) | n.i. (No inhibition up to 67 µg/mL) | n.i. (No inhibition up to 67 µg/mL) | n.i. (No inhibition up to 67 µg/mL) | n.i. (No inhibition up to 67 µg/mL) | n.i. (No inhibition up to 67 µg/mL) | < 4.44 | < 4.44 | n.i. (No inhibition up to 67 µg/mL) |  |
| CNC(C)C1CCC(N)C(OC2C(N)CC(N)C(OC3OCC(C)(O)C(NC)C3O)C2O)O1 (stereo not drawn) [gentamicin, reference compound] |  |  |  |  |  |  |  |  |  | MIC [2, 19]: 0.21 µg/mL (≈ 0.44 µM); MIC [4, 21]: 0.42 µg/mL (≈ 0.879 µM); MIC [5, 22]: 0.21 µg/mL (≈ 0.44 µM); MIC [13, 25]: 1.7 µg/mL (≈ 3.56 µM) |
